Experimental data published in PMC11597202, “Novel Thiazole-Fused [4,5-g] or [5,4-g]Quinazolin-8-ones and Their Quinazoline Analogues: Synthesis and Biological Evaluation” (Pharmaceuticals, 2024).

Target: T1, JAK3 (Homo sapiens, UniProt P52333)
T1 construct: host or cells: Sf9 insect cells (baculovirus)
T1 sequence (P52333 1-1124): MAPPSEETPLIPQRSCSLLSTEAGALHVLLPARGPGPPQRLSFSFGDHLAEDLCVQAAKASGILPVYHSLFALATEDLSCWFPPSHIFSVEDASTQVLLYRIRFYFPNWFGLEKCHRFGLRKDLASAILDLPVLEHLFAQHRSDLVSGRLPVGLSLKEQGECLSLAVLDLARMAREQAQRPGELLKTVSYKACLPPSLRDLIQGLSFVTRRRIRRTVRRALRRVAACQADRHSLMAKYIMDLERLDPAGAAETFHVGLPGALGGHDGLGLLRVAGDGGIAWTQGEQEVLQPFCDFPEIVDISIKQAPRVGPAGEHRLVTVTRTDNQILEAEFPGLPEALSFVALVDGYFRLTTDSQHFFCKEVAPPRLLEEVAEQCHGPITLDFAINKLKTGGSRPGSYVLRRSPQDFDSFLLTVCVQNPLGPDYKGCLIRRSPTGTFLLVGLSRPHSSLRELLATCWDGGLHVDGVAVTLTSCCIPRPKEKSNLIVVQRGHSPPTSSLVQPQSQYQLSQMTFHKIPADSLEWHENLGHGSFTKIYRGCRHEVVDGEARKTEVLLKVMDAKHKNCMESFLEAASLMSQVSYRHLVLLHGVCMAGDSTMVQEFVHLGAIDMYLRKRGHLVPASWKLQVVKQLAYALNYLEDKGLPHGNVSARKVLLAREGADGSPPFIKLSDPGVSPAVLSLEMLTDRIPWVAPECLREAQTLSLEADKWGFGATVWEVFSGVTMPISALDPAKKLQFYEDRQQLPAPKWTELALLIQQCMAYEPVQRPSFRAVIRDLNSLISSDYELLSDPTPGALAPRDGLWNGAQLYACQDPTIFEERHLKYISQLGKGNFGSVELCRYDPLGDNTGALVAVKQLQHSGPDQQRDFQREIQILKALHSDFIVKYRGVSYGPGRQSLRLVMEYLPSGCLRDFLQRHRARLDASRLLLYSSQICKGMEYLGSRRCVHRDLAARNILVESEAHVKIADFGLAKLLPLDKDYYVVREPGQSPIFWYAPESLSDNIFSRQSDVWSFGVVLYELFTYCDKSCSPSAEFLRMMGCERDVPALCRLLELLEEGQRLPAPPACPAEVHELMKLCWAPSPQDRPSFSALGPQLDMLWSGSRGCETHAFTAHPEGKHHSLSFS
Test: ADP-Glo kinase inhibition assay, JAK3
Assay type: biochemical
Conditions: for remaining activity at 1 µM: 1 μM compound; for remaining activity at 1 µM / remaining activity at 10 µM: percentage of maximum activity of the DMSO control, mean n = 2, 10 µM ATP, read-out: Residual activity JAK3; for remaining activity at 10 µM: 10 μM compound; for Inhibition of JAK3 kinase activity: span over the tested concentrations (1 and 10 μM)
Protocol: Kinase enzymatic activities were assayed in 384-well plates using the ADP-Glo^TM assay kit (Promega, Madison, WI, USA) according to the recommendations of the manufacturer. This luminescent ADP detection assay was described by Zegzouti and co-workers and provides a homogeneous and high-throughput screening method to measure kinase activity by quantifying the amount of ADP produced during a kinase reaction. Briefly, the reactions were carried out in a final volume of 6 µL for 30 min at 30 °C in an appropriate kinase buffer (10 mM MgCl2, 1 mM EGTA, 1 mM DTT, 25 mM Tris-HCl pH 7.5, 50 µg/mL heparin), with peptide or protein as substrate in the presence of 10 µM ATP. Peptide substrates were obtained from ProteoGenix (Schiltigheim, France) or Sigma for Histone H1, Poly (L-glutamic acid–L-tyrosine) sodium salt, Casein and MBP. After that, 6 µL of ADP-Glo^TM Kinase Reagent was added to stop the kinase reaction. After an incubation time of 50 min at room temperature (rt), 12 µL of Kinase Detection Reagent was added for one hour at rt. The transmitted signal was measured using the Envision (PerkinElmer, Waltham, MA, USA) microplate luminometer and expressed as Relative Light Units (RLUs). Kinase activities are expressed as percentages of remaining kinase activities detected after treatment with 1 or 10 µM of the tested compounds. The maximum kinase activity was measured in the absence of inhibitor but with an equivalent dose of DMSO (solvent of the tested compounds).
3. Kinase inhibition assays
Kinase enzymatic activities were assayed in 384-well plates using the ADP-GloTM assay kit (Promega, Madison, WI) according to the recommendations of the manufacturer. This luminescent ADP detection assay was described by Zegzouti and co-workers and provides a homogeneous and high-throughput screening method to measure kinase activity by quantifying the amount of ADP produced during a kinase reaction. Briefly, the reactions were carried out in a final volume of 6 µl for 30 min at 30°C in appropriate kinase buffer (10 mM MgCl2, 1 mM EGTA, 1 mM DTT, 25 mM Tris-HCl pH 7.5, 50 µg/mL heparin), with peptide or protein as substrate in the presence of 10 µM ATP. Peptide substrates were obtained from ProteoGenix (Schiltigheim, France) or Sigma for Histone H1, Poly (L-glutamic acid – L-tyrosine) sodium salt, Casein and MBP. After that, 6 µL of ADP-GloTM Kinase Reagent was added to stop the kinase reaction. After an incubation time of 50 min at room temperature (rt), 12 µL of Kinase Detection Reagent was added for 1 h at rt. The transmitted signal was measured using the Envision (PerkinElmer, Waltham, MA) microplate luminometer and expressed in Relative Light Unit (RLU). Kinase activities are expressed in percentages of remaining kinase activities detected after treatment with 1 or 10 µM of the tested compounds. The maximal kinase activity is measured in the absence of inhibitor but with an equivalent dose of DMSO (solvent of the tested compounds).
Table. Human protein kinases tested in the panel: CDK9, HASPIN, PIM1, GSK3b, CK1ε, JAK3, CLK1 […]
Protein Kinase Enzyme Description Substrate1
(Family) (Working concentration)
CDK9/CyclinT Human, recombinant, expressed by Peptide:
(CMGC) baculovirus in Sf9 insect cells […]
CLK1 Human, recombinant, expressed by Peptide: […]
(CMGC) baculovirus in Sf9 insect cells (57.3µM)
DYRK1A Human, recombinant, expressed by Peptide: […]
(CMGC) baculovirus in Sf9 insect cells (10.7µM)
PIM1 Human proto-oncogene, recombinant, Peptide: […]
(CAMK) expressed in bacteria (630 µM)
GSK3 Human, recombinant, expressed by Peptide:
(CMGC) baculovirus in Sf9 insect cells […]pEDEEE 3
HASPIN Human, kinase domain, amino acids 470 to Histone H3 peptide (1-21):
(Other) 798, recombinant, expressed in bacteria […] (8µM)
CK1ε Human, recombinant, expressed by Peptide: […]pAYSITA 2
(CK1) baculovirus in Sf9 insect cells (170µM)
JAK3 Human, recombinant, expressed by Peptide: […]
(TK) baculovirus in Sf9 insect cells (94µM) […]

SMILES | remaining activity at 1 µM [%] | remaining activity at 10 µM [%] | Inhibition of JAK3 kinase activity
COC(=N)c1nc2cc3c(=O)n(Cc4ccccc4)cnc3cc2s1 [Compound 6a, Methyl 7-benzyl-8-oxo-7,8-dihydrothiazolo[4,5-g]quinazoline-2-carbimidate] | 55 | 36 | –
COC(=N)c1nc2cc3ncn(Cc4ccccc4)c(=O)c3cc2s1 [Compound 6b, Methyl 7-benzyl-8-oxo-7,8-dihydrothiazolo[5,4-g]quinazoline-2-carbimidate] | 92 | 73 | –
COC(=N)c1nc2c(ccc3c(=O)n(Cc4ccccc4)cnc32)s1 [Compound 6c, Methyl 7-benzyl-6-oxo-6,7-dihydrothiazolo[5,4-h]quinazoline-2-carbimidate] | 59 | 44 | –
COC(=N)c1nc2ccc3c(=O)n(Cc4ccccc4)cnc3c2s1 [Compound 6d, Methyl 7-benzyl-6-oxo-6,7-dihydrothiazolo[4,5-h]quinazoline-2-carbimidate] | 80 | 92 | –
COC(=N)c1nc2cc3c(Nc4ccc(OC)cc4F)ncnc3cc2s1 [Compound 15a, Methyl 8-[(2-fluoro-4-methoxyphenyl)amino]thiazolo[4,5-g]quinazoline-2-carbimidate] | 64 | 58 | around 38%
COC(=N)c1nc2cc3ncnc(Nc4ccc(OC)cc4F)c3cc2s1 [Compound 15b, Methyl 8-[(2-fluoro-4-methoxyphenyl)amino]thiazolo[5,4-g]quinazoline-2-carbimidate] | 68 | 60 | around 38%
COC(=N)c1nc2ccc3ncn(Cc4ccccc4)c(=O)c3c2s1 [Compound I, methyl 8-benzyl-9-oxo-8,9-dihydrothiazolo[5,4-f]quinazoline-2-carbimidate, reference compound] | 48 | 52 | –
COC(=N)c1nc2ccc3ncnc(Nc4ccc(OC)cc4F)c3c2s1 [Compound II, methyl 9-[(2-fluoro-4-methoxyphenyl)amino]thiazolo[5,4-f]quinazoline-2-carbimidate, reference compound] | 69 | 54 | –
